Source: the supplement of paper PMC10627819

Legend:
B. subtilis 168 = test: Bliss interaction score (quartile over a dose matrix) (fitness difference); higher = more antagonism (negative = synergy)
Method in brief: (§1)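 Values were capped at 1 after dividing OD595 at stationary-phase entry by the plate's robust no-drug mean. This ratio is fitness, and single-drug fitness was inferred from the combination data. The Bliss score is observed minus product-expected fitness, given as quartiles over technical, biological and donor/recipient replicates.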

S. pneumoniae D39V [1] = test: as above
Method in brief: as §1

S. aureus DSM 20231 = test: as above
Method in brief: as §1

S. aureus Newman = test: as above
Method in brief: as §1

S. pneumoniae D39V [2] = test: fitness (endpoint OD595 vs no drug) (fraction); higher = more growth
Method in brief: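 Fitness is computed from the optical density at which cultures reach stationary phase, divided by the robust mean of no-drug control wells. Any value above 1 is set to 1. Cultures started at OD595 0.01 in 384-well plates with TSB, LB Lennox or CY at 37 °C, and OD595 was read every 30 min for 14 h against a first-reading background.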
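For Bliss interaction score (quartile over a dose matrix) in this document: first quartile when negative (synergy) and third quartile when positive (antagonism).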

C/C(=C\C(=O)OCCCCCCCCC(=O)O)C[C@@H]1OC[C@H](C[C@@H]2O[C@H]2[C@@H](C)[C@H](C)O)[C@@H](O)[C@H]1O [Pseudomonic acid] + CO[C@H]1/C=C/O[C@@]2(C)Oc3c(C)c(O)c4c(O)c(c(/C=N/N5CCN(C)CC5)c(O)c4c3C2=O)NC(=O)/C(C)=C\C=C\[C@H](C)[C@H](O)[C@@H](C)[C@@H](O)[C@@H](C)[C@H](OC(C)=O)[C@@H]1C [Rifampicin]
Details	Bliss interaction score
B. subtilis 168	0.0416
S. aureus DSM 20231	0.0229
S. aureus Newman	-0.0134
S. pneumoniae D39V [1]	0.14

S. pneumoniae D39V [2], partner 0.025 µg/mL, one replicate
Details	fitness
first compound 0.03 µg/mL	0.872
first compound 0.06 µg/mL	0.79
first compound 0.12 µg/mL	0.742

S. pneumoniae D39V [2], first compound 0.12 µg/mL
Details	fitness
partner 0.05 µg/mL	0.608
partner 0.2 µg/mL	0.136

O=C1CN(/N=C/c2ccc([N+](=O)[O-])o2)C(=O)N1 [Nitrofurantoin] + C[n+]1ccc(-c2cc[n+](C)cc2)cc1 [Paraquat]
Details	Bliss interaction score
B. subtilis 168	0.0514
S. aureus DSM 20231	0.0244
S. aureus Newman	0.0529
S. pneumoniae D39V [1]	0.0462

fitness, S. pneumoniae D39V [2]
Details	partner 1.5 µg/mL	partner 3 µg/mL	partner 6 µg/mL
first compound 1.285 µg/mL	0.949	0.959	0.941
first compound 2.57 µg/mL	0.961	0.953	0.945

fitness, S. pneumoniae D39V [2], one replicate
Details	first compound 2 µg/mL	first compound 4 µg/mL	first compound 5.14 µg/mL	first compound 8 µg/mL
partner 1.5 µg/mL	0.988	0.983	0.909	0.859
partner 3 µg/mL	0.965	0.968	0.927	0.871
partner 6 µg/mL	0.981	≥ 1	0.894	0.909

CCC[C@@H]1C[C@@H](C(=O)N[C@@H]([C@H]2O[C@H](SC)[C@H](O)[C@@H](O)[C@H]2O)[C@H](C)Cl)N(C)C1 [Clindamycin] + Clc1ccc(COC(Cn2ccnc2)c2ccc(Cl)cc2Cl)c(Cl)c1 [Miconazole]
Details	Bliss interaction score
B. subtilis 168	0.0322
S. aureus DSM 20231	-0.0342
S. aureus Newman	-0.0596
S. pneumoniae D39V [1]	-0.0991

S. pneumoniae D39V [2]
Details	fitness
first compound 0.0125 µg/mL, partner 1.25 µg/mL	0.688
first compound 0.0125 µg/mL, partner 2.5 µg/mL	0.758
first compound 0.0125 µg/mL, partner 5 µg/mL	0.761
first compound 0.015 µg/mL, partner 1.073 µg/mL	0.944
first compound 0.015 µg/mL, partner 2.145 µg/mL	0.945
first compound 0.015 µg/mL, partner 4.29 µg/mL	0.906
first compound 0.025 µg/mL, partner 1.25 µg/mL	0.433
first compound 0.025 µg/mL, partner 2.5 µg/mL	0.485
first compound 0.025 µg/mL, partner 5 µg/mL	0.444
first compound 0.03 µg/mL, partner 1.073 µg/mL	0.772
first compound 0.03 µg/mL, partner 2.145 µg/mL	0.777
first compound 0.03 µg/mL, partner 4.29 µg/mL	0.665
first compound 0.05 µg/mL, partner 1.25 µg/mL	0.213
first compound 0.05 µg/mL, partner 2.5 µg/mL	0.235
first compound 0.05 µg/mL, partner 5 µg/mL	0.252
first compound 0.06 µg/mL, partner 4.29 µg/mL	0.33

CC[C@H]1OC(=O)[C@H](C)[C@@H](O[C@H]2C[C@@](C)(OC)[C@@H](O)[C@H](C)O2)[C@H](C)[C@@H](O[C@@H]2O[C@H](C)C[C@H](N(C)C)[C@H]2O)[C@](C)(OC)C[C@@H](C)C(=O)[C@H](C)[C@@H](O)[C@]1(C)O [Clarithromycin] + COc1ccc(C[C@H](N)C(=O)N[C@H]2[C@@H](O)[C@H](n3cnc4c(N(C)C)ncnc43)O[C@@H]2CO)cc1 [Puromycin]
Details	Bliss interaction score
B. subtilis 168	0.0559
S. aureus DSM 20231	0.0616
S. aureus Newman	-0.0662
S. pneumoniae D39V [1]	-0.0827

fitness, S. pneumoniae D39V [2], one replicate
Details	first compound 0.007812 µg/mL	first compound 0.01562 µg/mL	first compound 0.03125 µg/mL	first compound 0.0625 µg/mL	first compound 0.125 µg/mL	first compound 0.25 µg/mL
partner 1 µg/mL	0.947	0.867	0.676	0.419	0.138	0.112
partner 2 µg/mL	0.839	0.805	0.612	0.504	0.192	0.0762
partner 4 µg/mL	0.667	0.617	0.467	0.255	0.15	0.134

fitness, S. pneumoniae D39V [2]
Details	first compound 0.07 µg/mL	first compound 0.14 µg/mL	first compound 0.28 µg/mL
partner 1 µg/mL	0.131	0.0877	0.11
partner 2 µg/mL	0.125	0.096	0.0799
partner 4 µg/mL	0.12	0.122	0.0797

CCC[C@@H]1C[C@@H](C(=O)N[C@@H]([C@H]2O[C@H](SC)[C@H](O)[C@@H](O)[C@H]2O)[C@H](C)Cl)N(C)C1 [Clindamycin] + C[C@@H](O)[C@H]1C(=O)N2C(C(=O)O)=C(SCCNC=N)C[C@H]12 [Imipenem]
Details	Bliss interaction score
B. subtilis 168	0.159
S. aureus DSM 20231	0.0276
S. aureus Newman	-0.0198
S. pneumoniae D39V [1]	-0.0804

fitness, S. pneumoniae D39V [2]
Details	first compound 0.0125 µg/mL	first compound 0.015 µg/mL	first compound 0.025 µg/mL	first compound 0.03 µg/mL	first compound 0.05 µg/mL	first compound 0.06 µg/mL
partner 0.005 µg/mL	0.753	–	0.5	–	0.213	–
partner 0.0065 µg/mL	–	0.843	–	0.628	–	0.176
partner 0.01 µg/mL	0.763	–	0.486	–	0.202	–
partner 0.013 µg/mL	–	0.877	–	0.744	–	0.46
partner 0.02 µg/mL	0.758	–	0.468	–	0.19	–
partner 0.026 µg/mL	–	0.824	–	0.644	–	0.299

C[C@@H](O)[C@H]1C(=O)N2C(C(=O)O)=C(SCCNC=N)C[C@H]12 [Imipenem] + COc1ccc(C[C@H](N)C(=O)N[C@H]2[C@@H](O)[C@H](n3cnc4c(N(C)C)ncnc43)O[C@@H]2CO)cc1 [Puromycin]
Details	Bliss interaction score
B. subtilis 168	0.0681
S. aureus DSM 20231	0.0683
S. aureus Newman	-0.0481
S. pneumoniae D39V [1]	0.0871

fitness, S. pneumoniae D39V [2], one replicate
Details	first compound 0.005 µg/mL	first compound 0.01 µg/mL	first compound 0.02 µg/mL
partner 1 µg/mL	0.896	0.955	0.973
partner 2 µg/mL	0.931	0.954	0.941
partner 4 µg/mL	0.729	0.791	0.759

fitness, S. pneumoniae D39V [2]
Details	first compound 0.0065 µg/mL	first compound 0.013 µg/mL	first compound 0.026 µg/mL
partner 1 µg/mL	0.992	0.989	0.964
partner 2 µg/mL	0.96	0.886	0.906
partner 4 µg/mL	0.748	0.783	0.739

CC[C@H]1OC(=O)[C@H](C)[C@@H](O[C@H]2C[C@@](C)(OC)[C@@H](O)[C@H](C)O2)[C@H](C)[C@@H](O[C@@H]2O[C@H](C)C[C@H](N(C)C)[C@H]2O)[C@](C)(OC)C[C@@H](C)C(=O)[C@H](C)[C@@H](O)[C@]1(C)O [Clarithromycin] + CC1=C\[C@@H](O)CC(=O)Cc2nc(co2)C(=O)N2CCC=C2C(=O)O[C@H](C(C)C)[C@H](C)/C=C/C(=O)NC\C=C\1 [Virginiamycin M1]
Details	Bliss interaction score
B. subtilis 168	0.0359
S. aureus DSM 20231	0.0856
S. aureus Newman	0.0322
S. pneumoniae D39V [1]	0.0597

fitness, S. pneumoniae D39V [2], one replicate
Details	first compound 0.007812 µg/mL	first compound 0.01562 µg/mL	first compound 0.03125 µg/mL	first compound 0.0625 µg/mL	first compound 0.125 µg/mL	first compound 0.25 µg/mL
partner 0.15 µg/mL	–	–	–	0.788	0.645	0.463
partner 0.3 µg/mL	–	–	–	0.734	0.635	0.425
partner 0.5 µg/mL	0.856	0.884	0.758	0.756	0.529	0.361
partner 1 µg/mL	0.852	0.85	0.719	0.608	0.328	0.132
partner 2 µg/mL	0.853	0.808	0.682	–	–	–

fitness, S. pneumoniae D39V [2]
Details	first compound 0.0625 µg/mL	first compound 0.07 µg/mL	first compound 0.125 µg/mL	first compound 0.14 µg/mL	first compound 0.25 µg/mL	first compound 0.28 µg/mL
partner 0.5 µg/mL	–	0.119	–	0.0772	–	0.0473
partner 1 µg/mL	–	0.118	–	0.0875	–	0.0656
partner 2 µg/mL	0.647	0.124	0.463	0.105	0.288	0.0464

C[C@@H](O)[C@H]1C(=O)N2C(C(=O)O)=C(SCCNC=N)C[C@H]12 [Imipenem] + CN(N=O)C(=O)N[C@@H](C=O)[C@@H](O)[C@H](O)[C@H](O)CO [Streptozotocin]
Details	Bliss interaction score
B. subtilis 168	-0.138
S. aureus DSM 20231	-0.0317
S. aureus Newman	-0.0113
S. pneumoniae D39V [1]	0.0577

fitness, S. pneumoniae D39V [2], one replicate
Details	first compound 0.005 µg/mL	first compound 0.01 µg/mL	first compound 0.02 µg/mL
partner 1.2 µg/mL	0.986	0.949	≥ 1
partner 2.4 µg/mL	0.983	0.931	0.97
partner 4.8 µg/mL	0.917	0.86	0.94

fitness, S. pneumoniae D39V [2]
Details	first compound 0.0065 µg/mL	first compound 0.013 µg/mL	first compound 0.026 µg/mL
partner 1.2 µg/mL	0.966	0.908	0.908
partner 2.4 µg/mL	0.942	0.884	0.824
partner 4.8 µg/mL	0.968	0.945	0.966
